Experimental data published in PMC3639963, “A New Class of Small Molecule Inhibitor of BMP Signaling” (PLoS ONE, 2013).

How the values were obtained:
Test in all cases: Nanosyn kinase profiling
Assay type in all cases: biochemical
Conditions in all cases: read-out: Percentage inhibition; for inhibition at 0.1 µM: 0.1 µM inhibitor; for inhibition at 1 µM: 1 µM inhibitor
[1] = target: T1, GSK3α (Homo sapiens, UniProt P49840)
T1 construct: purchased Nanosyn (enzymatic panel); SGC in-house recombinant human kinases (DSF panel); Invitrogen (ALK1-6)
Method in brief: (§1)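 Percent inhibition of each kinase was measured with the inhibitor at 0.1 µM and at 1 µM, as part of a 200-kinase human selectivity panel.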

[2] = target: T2, IKK-α (Homo sapiens, UniProt O15111)
T2 construct: purchased Nanosyn (enzymatic panel); SGC in-house recombinant human kinases (DSF panel); Invitrogen (ALK1-6)
T2 sequence (O15111 1-745): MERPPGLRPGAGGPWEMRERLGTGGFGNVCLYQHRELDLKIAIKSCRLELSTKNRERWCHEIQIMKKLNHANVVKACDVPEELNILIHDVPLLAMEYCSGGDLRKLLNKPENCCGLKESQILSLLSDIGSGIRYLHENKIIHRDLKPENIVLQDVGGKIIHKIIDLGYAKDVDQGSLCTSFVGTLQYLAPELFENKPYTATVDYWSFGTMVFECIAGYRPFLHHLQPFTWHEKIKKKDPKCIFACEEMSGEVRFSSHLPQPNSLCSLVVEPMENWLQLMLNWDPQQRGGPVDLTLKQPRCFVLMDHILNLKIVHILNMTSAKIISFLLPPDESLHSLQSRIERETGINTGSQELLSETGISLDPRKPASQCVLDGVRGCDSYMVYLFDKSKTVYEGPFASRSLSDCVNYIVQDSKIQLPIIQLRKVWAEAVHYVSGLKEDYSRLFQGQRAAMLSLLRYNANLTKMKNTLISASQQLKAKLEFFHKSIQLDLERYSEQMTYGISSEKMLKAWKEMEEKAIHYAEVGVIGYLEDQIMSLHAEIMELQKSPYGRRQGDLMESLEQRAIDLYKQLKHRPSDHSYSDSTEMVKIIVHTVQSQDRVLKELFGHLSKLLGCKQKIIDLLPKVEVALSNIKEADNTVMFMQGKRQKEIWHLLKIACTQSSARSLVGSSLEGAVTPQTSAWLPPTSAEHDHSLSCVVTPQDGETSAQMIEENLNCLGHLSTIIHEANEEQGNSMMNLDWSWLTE
Method in brief: as §1

[3] = target: T3, IKK-ε (Homo sapiens, UniProt Q14164)
T3 construct: purchased Nanosyn (enzymatic panel); SGC in-house recombinant human kinases (DSF panel); Invitrogen (ALK1-6)
T3 sequence (Q14164 1-716): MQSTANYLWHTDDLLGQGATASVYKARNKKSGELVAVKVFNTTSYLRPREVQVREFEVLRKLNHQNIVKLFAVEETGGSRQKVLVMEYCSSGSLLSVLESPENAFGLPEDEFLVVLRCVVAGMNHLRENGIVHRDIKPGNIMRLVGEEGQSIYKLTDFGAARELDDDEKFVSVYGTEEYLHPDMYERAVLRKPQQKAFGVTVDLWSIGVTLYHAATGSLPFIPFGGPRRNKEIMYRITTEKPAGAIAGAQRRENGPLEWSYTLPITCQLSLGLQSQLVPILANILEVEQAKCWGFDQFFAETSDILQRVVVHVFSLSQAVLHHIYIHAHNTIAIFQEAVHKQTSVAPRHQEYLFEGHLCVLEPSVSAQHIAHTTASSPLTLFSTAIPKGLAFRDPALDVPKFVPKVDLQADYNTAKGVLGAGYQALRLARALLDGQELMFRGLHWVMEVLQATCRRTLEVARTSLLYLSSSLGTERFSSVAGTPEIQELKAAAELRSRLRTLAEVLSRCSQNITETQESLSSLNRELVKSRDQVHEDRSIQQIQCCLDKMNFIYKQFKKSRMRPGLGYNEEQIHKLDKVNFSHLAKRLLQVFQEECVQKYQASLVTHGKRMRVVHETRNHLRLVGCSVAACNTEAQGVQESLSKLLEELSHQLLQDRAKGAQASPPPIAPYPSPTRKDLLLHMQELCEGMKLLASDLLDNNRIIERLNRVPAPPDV
Method in brief: as §1

[4] = target: T4, ITK (Homo sapiens, UniProt Q08881)
T4 construct: purchased Nanosyn (enzymatic panel); SGC in-house recombinant human kinases (DSF panel); Invitrogen (ALK1-6)
T4 sequence (Q08881 1-620): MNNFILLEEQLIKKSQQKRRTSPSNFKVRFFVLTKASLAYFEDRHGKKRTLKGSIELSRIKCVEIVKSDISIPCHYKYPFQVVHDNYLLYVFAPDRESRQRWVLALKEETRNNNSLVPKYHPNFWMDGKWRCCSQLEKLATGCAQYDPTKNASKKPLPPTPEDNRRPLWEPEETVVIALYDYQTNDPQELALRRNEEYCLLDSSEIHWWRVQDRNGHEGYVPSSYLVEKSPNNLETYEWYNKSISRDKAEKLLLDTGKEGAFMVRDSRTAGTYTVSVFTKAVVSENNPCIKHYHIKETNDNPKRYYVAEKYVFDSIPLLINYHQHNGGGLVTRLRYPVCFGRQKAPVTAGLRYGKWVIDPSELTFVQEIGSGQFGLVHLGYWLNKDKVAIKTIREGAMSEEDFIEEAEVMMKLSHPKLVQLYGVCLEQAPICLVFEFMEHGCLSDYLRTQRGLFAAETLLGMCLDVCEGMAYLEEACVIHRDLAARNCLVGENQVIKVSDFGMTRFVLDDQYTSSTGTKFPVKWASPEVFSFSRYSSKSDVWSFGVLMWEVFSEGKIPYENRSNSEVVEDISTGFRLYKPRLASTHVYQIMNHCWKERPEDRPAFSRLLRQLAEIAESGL
Method in brief: as §1

[5] = target: T5, MAPK1 (Homo sapiens, UniProt P28482)
T5 construct: purchased Nanosyn (enzymatic panel); SGC in-house recombinant human kinases (DSF panel); Invitrogen (ALK1-6)
Method in brief: as §1

T1 sequence (P49840 whole entry): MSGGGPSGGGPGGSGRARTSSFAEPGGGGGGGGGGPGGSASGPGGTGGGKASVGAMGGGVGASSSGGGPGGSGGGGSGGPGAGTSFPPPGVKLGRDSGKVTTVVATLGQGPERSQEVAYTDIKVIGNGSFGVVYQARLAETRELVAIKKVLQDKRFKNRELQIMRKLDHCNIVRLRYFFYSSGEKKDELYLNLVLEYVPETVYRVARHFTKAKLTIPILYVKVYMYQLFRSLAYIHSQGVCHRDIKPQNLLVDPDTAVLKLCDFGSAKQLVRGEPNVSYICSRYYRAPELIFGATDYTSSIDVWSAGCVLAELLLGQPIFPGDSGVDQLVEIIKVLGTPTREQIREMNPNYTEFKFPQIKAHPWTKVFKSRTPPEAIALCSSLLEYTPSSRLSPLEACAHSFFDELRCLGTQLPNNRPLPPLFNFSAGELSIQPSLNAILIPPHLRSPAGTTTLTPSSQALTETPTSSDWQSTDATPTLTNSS
T5 sequence (P28482 whole entry): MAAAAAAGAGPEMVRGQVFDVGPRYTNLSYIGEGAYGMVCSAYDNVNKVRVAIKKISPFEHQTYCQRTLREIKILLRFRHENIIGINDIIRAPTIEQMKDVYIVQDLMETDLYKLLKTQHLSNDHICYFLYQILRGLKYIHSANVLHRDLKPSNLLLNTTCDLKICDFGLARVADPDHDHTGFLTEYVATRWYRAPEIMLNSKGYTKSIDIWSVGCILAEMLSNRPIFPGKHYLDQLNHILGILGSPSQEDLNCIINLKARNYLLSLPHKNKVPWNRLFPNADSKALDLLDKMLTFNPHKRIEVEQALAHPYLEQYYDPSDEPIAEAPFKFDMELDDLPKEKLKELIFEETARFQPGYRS

Structure (SMILES)	inhibition at 0.1 µM [1]	inhibition at 1 µM [1]	inhibition at 0.1 µM [2]	inhibition at 1 µM [2]	inhibition at 0.1 µM [3]	inhibition at 1 µM [3]	inhibition at 0.1 µM [4]	inhibition at 1 µM [4]	inhibition at 0.1 µM [5]	inhibition at 1 µM [5]
COc1cc(-c2cc(-c3cccc(O)c3)cnc2N)cc(OC)c1OC [K02288, 3-[6-amino-5-(3,4,5-trimethoxy-phenyl)-pyridin-3-yl]-phenol]	0.6%	2.1%	7.4%	2.7%	-6%	-2%	0%	0%	-3%	9.9%
c1ccc2c(-c3cnn4cc(-c5ccc(N6CCNCC6)cc5)cnc34)ccnc2c1 [LDN-193189]	3.2%	1.1%	3%	-2%	7.5%	7.4%	0.9%	3.6%	2.6%	1.4%
